Measured values published in patent US20230303564A1, “PYRIMIDINE RING COMPOUND” (MEDSHINE DISCOVERY INC., priority 2020, published 2023).

What was measured:
CDK2/CyclinA2 = CDK2/CyclinA2 (Homo sapiens (Human), UniProt P24941); assay: CDK2/CyclinA2 enzyme activity test (ADP-Glo); type: biochemical; conditions: 50 μM ATP, 25° C. 60 minutes, read-out: CDK2/Cyclin A2 IC50
Experimental: CDK2/CyclinA2 Enzyme Reaction System
(§1) Enzymes, substrates, ATP, and inhibitors were diluted by kinase buffer in the kit. The compounds to be tested were diluted 5-fold with a multi-channel pipette to the eighth concentration, that is, from 50 μM to 0.65 nM, the concentration of DMSO was 5%, and a double-hole experiment was set up. 1 μL of each concentration gradient of inhibitors, 2 μL of CDK2/CyclinA2 enzyme (1.6 ng), 2 μL mixture of substrate and ATP (50 μM ATP, 0.1 μg/μL substrate) were added to the microplates, and the final concentration gradient of the compound was 10 μM to 0.13 nM. The reaction system was reacted at 25° C. for 60 minutes. After the reaction, 5 μL of ADP-Glo reagent was added to each well, the reaction was carried out at 25° C. for 40 minutes, after the reaction was completed, 10 μL of kinase detection reagent was added to each well, the reaction was carried out at 25° C. for 30 minutes, the multiple label analyzer was used to read the chemiluminescence with an integration time of 0.5 seconds
(§2) The equation (Sample−Min)/(Max−Min)*100% was used to convert the raw data into inhibition rate, and the value of IC50 can be obtained by curve fitting with four parameters (obtained by log (inhibitor) vs. response-Variable slope mode in GraphPad Prism). The enzymatic inhibitory activity of the compounds of the present disclosure on CDK1/CyclinB1, CDK2/CyclinA2, CDK2/CyclinE1, CDK4/CyclinD1, CDK6/CyclinD1, CDK7/CyclinH/MAT1, CDK9/CyclinT1 was provided in Table 1.

CDK6/CyclinD1 = CDK6/CyclinD1 (Homo sapiens (Human), UniProt Q00534); assay: CDK6/CyclinD1 enzyme activity test (LANCE Ultra TR-FRET); type: biochemical; conditions: 250 μM ATP, 25° C. 120 minutes, read-out: CDK6/Cyclin D1 IC50
CDK6/CyclinD1, sequence (Q00534 whole entry): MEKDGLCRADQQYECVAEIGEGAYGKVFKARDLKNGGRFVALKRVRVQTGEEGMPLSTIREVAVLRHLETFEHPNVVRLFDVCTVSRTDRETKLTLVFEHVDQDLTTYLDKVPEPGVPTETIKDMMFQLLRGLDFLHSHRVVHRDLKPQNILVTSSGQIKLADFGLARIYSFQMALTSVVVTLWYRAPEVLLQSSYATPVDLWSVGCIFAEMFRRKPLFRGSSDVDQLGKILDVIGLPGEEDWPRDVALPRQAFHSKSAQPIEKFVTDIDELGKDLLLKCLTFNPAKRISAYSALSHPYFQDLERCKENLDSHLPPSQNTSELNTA
CDK6/CyclinD1, sequence (P24385 whole entry partner): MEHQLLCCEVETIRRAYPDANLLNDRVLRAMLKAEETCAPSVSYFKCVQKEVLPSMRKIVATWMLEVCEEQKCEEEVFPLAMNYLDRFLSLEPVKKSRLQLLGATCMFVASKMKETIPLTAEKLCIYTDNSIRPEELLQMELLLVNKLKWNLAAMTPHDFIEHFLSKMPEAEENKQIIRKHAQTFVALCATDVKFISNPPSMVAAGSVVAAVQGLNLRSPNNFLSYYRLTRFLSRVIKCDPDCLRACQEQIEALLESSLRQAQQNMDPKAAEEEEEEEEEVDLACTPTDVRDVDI
Experimental: CDK6/CyclinD1 Enzyme Reaction System
(§3) Preparation of Kinase Buffer:
(§4) The composition of the buffer: 50 mM of hydroxyethylpiperazine ethanesulfonic acid solution at pH 7.5, 1 mM of ethylenediaminetetraacetic acid, 10 mM of magnesium chloride, 0.01% Brij-35, and 2 mM of dithiothreitol.
(§5) Enzymes, substrate LANCE Ultra ULight™-4E-BP-1(Thr37146) Peptide, ATP, and inhibitors were diluted by kinase buffer.
(§6) The compounds to be tested were diluted 5-fold with a multi-channel pipette to the eighth concentration, that is, from 40 μM to 0.512 nM, the concentration of DMSO was 4%, and a double-hole experiment was set up. […] The reaction system was reacted at 25° C. for 120 minutes. After the reaction, 5 μL mixture of EDTA and 2× LANCE™ Detection Buffer (1:1) were added to each well, the reaction was carried out at 25° C. for 5 minutes, after the reaction was completed, 5 μL of LANCE Ultra Eu-anti-P-4E-BP1(Thr37MS) (4 nM) was added to each well, the reaction was carried out at 25° C. for 60 minutes, the reaction signal was detected by Nivo instrument according to the principle of time-resolved fluorescence resonance energy transfer.
as §2

CDK4/CyclinD1 = CDK4/CyclinD1 (Homo sapiens (Human), UniProt P11802); assay: CDK4/CyclinD1 enzyme activity test (LANCE Ultra TR-FRET); type: biochemical; conditions: 350 μM ATP, 25° C. 120 minutes, read-out: CDK4/Cyclin D1 IC50
CDK4/CyclinD1, sequence (P11802 whole entry): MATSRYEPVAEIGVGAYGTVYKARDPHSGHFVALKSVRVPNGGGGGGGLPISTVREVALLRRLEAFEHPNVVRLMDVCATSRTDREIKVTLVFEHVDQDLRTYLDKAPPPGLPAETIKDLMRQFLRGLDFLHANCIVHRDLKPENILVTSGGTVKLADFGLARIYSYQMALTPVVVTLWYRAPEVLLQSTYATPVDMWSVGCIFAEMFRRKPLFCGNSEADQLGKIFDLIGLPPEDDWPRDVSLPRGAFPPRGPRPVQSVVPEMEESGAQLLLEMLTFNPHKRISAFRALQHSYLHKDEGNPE
CDK4/CyclinD1, sequence (P24385 whole entry partner): as the sequence (P24385 whole entry partner) above
Experimental: CDK4/CyclinD1 Enzyme Reaction System
as §3, §4, §5, §6, §2

CDK2/CyclinE1 = CDK2/CyclinE1 (Homo sapiens (Human), UniProt P24941); assay: CDK2/CyclinE1 enzyme activity test (ADP-Glo); type: biochemical; conditions: 150 μM ATP, 25° C. 60 minutes, read-out: CDK2/Cyclin E1 IC50
Experimental: CDK2/CyclinE1 Enzyme Reaction System
as §1, with “CDK2/CyclinE1” for “CDK2/CyclinA2”, “(2” for “(1.6”, “(150” for “(50”, “seconds.” for “seconds”
as §2

CDK9/CyclinT1 = CDK9/CyclinT1 (Homo sapiens (Human), UniProt P50750); assay: CDK9/CyclinT1 enzyme activity test (ADP-Glo); type: biochemical; conditions: 100 μM ATP, 25° C. 120 minutes, read-out: CDK 9/Cyclin T1 IC50
CDK9/CyclinT1, sequence (P50750 whole entry): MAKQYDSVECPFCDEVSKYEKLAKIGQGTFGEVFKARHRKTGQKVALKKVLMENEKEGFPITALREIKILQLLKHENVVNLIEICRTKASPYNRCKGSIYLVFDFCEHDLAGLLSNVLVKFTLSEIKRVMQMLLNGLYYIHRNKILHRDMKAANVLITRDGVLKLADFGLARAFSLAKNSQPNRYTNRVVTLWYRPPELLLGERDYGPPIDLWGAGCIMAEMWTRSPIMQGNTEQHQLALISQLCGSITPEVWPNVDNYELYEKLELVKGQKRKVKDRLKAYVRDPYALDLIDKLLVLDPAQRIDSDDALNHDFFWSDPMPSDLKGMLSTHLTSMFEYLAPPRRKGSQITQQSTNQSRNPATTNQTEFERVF
CDK9/CyclinT1, sequence (O60563 whole entry partner): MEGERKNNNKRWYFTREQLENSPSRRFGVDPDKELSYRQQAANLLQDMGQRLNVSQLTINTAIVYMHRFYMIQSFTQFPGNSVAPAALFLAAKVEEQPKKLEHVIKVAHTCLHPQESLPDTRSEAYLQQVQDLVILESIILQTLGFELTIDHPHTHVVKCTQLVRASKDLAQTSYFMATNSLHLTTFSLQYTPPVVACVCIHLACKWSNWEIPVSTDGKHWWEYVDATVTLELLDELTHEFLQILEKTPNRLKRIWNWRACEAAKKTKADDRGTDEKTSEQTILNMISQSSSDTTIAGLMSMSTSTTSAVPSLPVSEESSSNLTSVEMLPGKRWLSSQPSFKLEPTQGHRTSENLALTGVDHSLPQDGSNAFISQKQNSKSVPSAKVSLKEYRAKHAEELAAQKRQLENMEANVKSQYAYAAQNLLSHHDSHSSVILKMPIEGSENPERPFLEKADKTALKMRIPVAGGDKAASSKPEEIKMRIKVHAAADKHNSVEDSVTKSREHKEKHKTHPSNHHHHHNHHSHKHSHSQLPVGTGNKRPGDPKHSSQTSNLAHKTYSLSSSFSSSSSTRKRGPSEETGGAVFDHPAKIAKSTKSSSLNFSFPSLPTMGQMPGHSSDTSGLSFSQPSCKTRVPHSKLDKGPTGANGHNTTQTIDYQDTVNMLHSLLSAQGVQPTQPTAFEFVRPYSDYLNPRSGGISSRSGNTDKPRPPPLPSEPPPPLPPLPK
Experimental: CDK9/CyclinT1 Enzyme Reaction System
as §1, with “of CDK9/CyclinT1” for “of CDK2/CyclinA2”, “enzyme (4” for “enzyme (1.6”, “ATP (100” for “ATP (50”, “ATP, 0.2” for “ATP, 0.1”, “for 120” for “for 60”, “0.5 seconds.” for “0.5 seconds”
as §2

OVCAR-3 cells = assay: Cell activity test, anti-proliferation (CellTiter Glo), OVCAR-3; type: cell-based, human; conditions: OVCAR-3, 7 days of culture
Experimental: 2) Day 1: Laying Cell Plates
(6) 0.7 mL of cell suspension was pipetted into the counting cup, the cells were counted on ViCell XR, and the cell suspension was diluted separately with culture medium to the required cell concentration for laying cell plates: 1000/30 ul.
(7) Microplates (2 plates) were required, 100 uL of phosphate buffered saline was added to the peripheral wells of the 384-well plate, 30 uL of cell suspension was added to the other wells, and the cell plate was placed into incubator for culture.
(1) Compound preparation: the stock solution of the compound to be tested was 10 mM.
(2) The compound to be tested was diluted 3 times with DMSO for 10 gradients.
(2) The compound to be tested was diluted with culture medium, and the highest final concentration was 10 μM.
(4) 10 μL of the compound was pipetted into the 384-well plate, and then the cell plate was placed back into the incubator for culture.
4) Adding CTG and Reading the Plate
(1) After 7 days of culture, 50 ul CellTiter Glo was added to the cell plate, shaken for 10 minutes in the dark, and left at room temperature for 5 minutes.
(2) The plate was read on Envision with the program: US LUM 384 (CPS). The experiment was originally stored in the personal disk:
1. The mean and standard deviation of 0% inhibition (DMSO row, ZPE) and 100% inhibition (PBS row, HPE) were calculated;
2. Inhibition rate (%)=(1−(sample value-average value of 100% inhibition)/(average value of 0% inhibition-average value of 100% inhibition))*100;
3. The curve was fitted by GraphPad 8.0 software;

CDK1/CyclinB1 = CDK1/CyclinB1 (Homo sapiens (Human), UniProt P06493); assay: CDK1/CyclinB1 enzyme activity test (ADP-Glo); type: biochemical; conditions: 25 μM ATP, 25° C. 120 minutes, read-out: CDK1/Cyclin B IC50
CDK1/CyclinB1, sequence (P06493 whole entry): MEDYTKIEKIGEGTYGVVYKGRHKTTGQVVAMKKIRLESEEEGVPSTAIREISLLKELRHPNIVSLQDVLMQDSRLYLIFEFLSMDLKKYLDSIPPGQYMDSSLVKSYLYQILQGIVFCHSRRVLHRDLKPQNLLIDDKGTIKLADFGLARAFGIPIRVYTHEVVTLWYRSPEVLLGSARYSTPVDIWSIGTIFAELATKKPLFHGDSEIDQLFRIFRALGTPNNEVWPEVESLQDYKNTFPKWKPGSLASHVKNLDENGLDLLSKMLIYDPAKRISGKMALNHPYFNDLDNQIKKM
CDK1/CyclinB1, sequence (P14635 whole entry partner): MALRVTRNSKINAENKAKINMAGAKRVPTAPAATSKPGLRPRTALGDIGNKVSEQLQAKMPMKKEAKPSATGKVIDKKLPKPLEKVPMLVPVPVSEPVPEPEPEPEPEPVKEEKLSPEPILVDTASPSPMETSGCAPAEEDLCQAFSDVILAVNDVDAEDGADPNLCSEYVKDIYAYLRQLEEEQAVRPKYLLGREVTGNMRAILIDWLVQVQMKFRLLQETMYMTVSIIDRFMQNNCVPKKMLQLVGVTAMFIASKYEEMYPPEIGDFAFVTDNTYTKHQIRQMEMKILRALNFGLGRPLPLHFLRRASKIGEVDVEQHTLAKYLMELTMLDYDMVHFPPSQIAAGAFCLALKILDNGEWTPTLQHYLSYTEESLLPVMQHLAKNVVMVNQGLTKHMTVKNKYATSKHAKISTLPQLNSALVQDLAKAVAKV
Experimental: CDK1/CyclinB1 Enzyme Reaction System
as §1, with “CDK1/CyclinB1” for “CDK2/CyclinA2”, “(12.5” for “(1.6”, “(25” for “(50”, “adenosine triphosphate, 0.2” for “ATP, 0.1”, “120” for “60”, “seconds.” for “seconds”
as §2

[1] = tested on: human ovarian cancer OVCAR-3 cells subcutaneous xenograft tumor; assay: In vivo efficacy study, OVCAR-3 subcutaneous xenograft tumor BALB/c nude mouse model; conditions: for Tumor volume (Day 0): Day 0 (at grouping), OVCAR-3 xenograft, BALB/c nude mice; for Tumor volume (Day 7): 10 mg/kg from day 0 to day 7; for Tumor volume (Day 14): 10 mg/kg from day 0 to day 14; for Tumor volume (Day 21): 10 mg/kg day 0 to day 14, 30 mg/kg from day 14 to day 21
Experimental: In vivo efficacy study of human ovarian cancer OVCAR-3 cells subcutaneous xenograft tumor BALB/c nude mouse model
Cell culture: Human ovarian cancer OVCAR-3 cells were monolayer cultured in vitro, the culture conditions were 10% fetal bovine serum, 100 U/mL Penicillin and 100 μg/mL Streptomycin were added in RPMI 1640 medium, cultured at 37° C. 5% CO2 incubator. Conventional digestion with trypsin-EDTA was performed for passage. When the cell saturation was 80%/90% and the number reached the required level, the cells were collected, counted, and inoculated.
Animals: BALB/c nude mice, female, 6-8 weeks old, weighed 18-22 grams. A total of 95 (42+ additional 53) animals were needed, provided by the Experimental Animal Management Department of Shanghai Institute of Family Planning Sciences (formerly Shanghai Sipulbichem).
Tumor inoculation: 0.2 mL (1×10^7) OVCAR-3 cells (with matrix glue, volume ratio of 1:1) were subcutaneously inoculated on the right back of each mouse, and the mice were grouped administrated when the average tumor volume reached about 150 mm^3.
Dosage and frequency of administration: Day 0 to Day 7, 10 mg/kg; Day 7 to Day 14, 10 mg/kg; Day 14 to Day 21, 30 mg/kg;
Experimental index: The experimental index was used to examine whether tumor growth was inhibited, delayed or cured. Tumor diameters were measured with vernier calipers twice a week. The calculation formula of tumor volume was: V=0.5a×b^2, wherein a and b represented the long and short diameters of the tumor, respectively.

[2] = Pharmacokinetic evaluation in CD-1 (ICR) mice, oral; type: in vivo, mouse; conditions: male CD-1 (ICR) mice, oral 5 mg/kg, plasma
Experimental: Experimental Scheme of Compounds 18, 19 and 20
The healthy adult male CD-1 (ICR) mice used in this study were purchased from Pinghu Weitong Lihua Experimental Animal Technology Co., Ltd.
0.300 mL of the stock solution was measured and vortexed for 2 minutes to obtain a homogeneous suspension at a concentration of 1 mg/mL, and the administration vehicle was 1% HPMC in water.
Two male CD-1 (ICR) mice were given 5 mg/kg of the compound to be tested by intragastric administration.
The blood of two animals was collected at each time point by serial blood collection. 30 μL of whole blood was collected respectively at 0.25, 0.5, 1, 2, 4, 8, and 24 hours after administration. The whole blood was placed in an anticoagulant tube, centrifuged at 3200 g for 10 minutes at 4° C., plasma was prepared and stored at −60° C. or lower. The drug concentration in plasma was determined by LC/MS-MS.

SMILES	IC50 (CDK2/CyclinA2)	IC50 (CDK6/CyclinD1)	IC50 (CDK4/CyclinD1)	IC50 (CDK2/CyclinE1)	IC50 (CDK9/CyclinT1)	IC50 (OVCAR-3 cells)	IC50 (CDK1/CyclinB1)	Tumor volume (Day 0) [1]	Tumor volume (Day 7) [1]	Tumor volume (Day 14) [1]	Tumor volume (Day 21) [1]	Oral exposure AUC0-t [2]
Cc1cc2cnc(NC3CCN(S(C)(=O)=O)CC3)nc2c(N[C@@H]2CCC[C@@]2(C)O)n1 (racemic) [Compound 6]	0.52 nM	1.56 nM	1.08 nM	–	–	–	–	–	–	–	–	–
CS(=O)(=O)N1CCC(Nc2ncc3cc(C(F)F)nc(N[C@H]4CCCC4(F)F)c3n2)CC1 (single isomer, unassigned) [Compound 21]	–	0.34 nM	0.46 nM	4.32 nM	15 nM	15 nM	8.48 nM	–	–	–	–	–
C[C@@]1(O)CCC[C@H]1Nc1nccc2cnc(NC3CCN(S(C)(=O)=O)CC3)nc12 [Compound 1]	0.56 nM	2.28 nM	3.9 nM	1.67 nM	–	–	2.72 nM	–	–	–	–	–
CS(=O)(=O)N1CCC(Nc2ncc3ccnc(NC4CCCC4)c3n2)CC1 [Compound 4]	0.27 nM	1.49 nM	1.5 nM	–	–	–	–	–	–	–	–	–
C[C@@]1(O)CCC[C@H]1Nc1nc(C(F)F)cc2cnc(NC3CCN(S(C)(=O)=O)CC3)nc12 [Compound 14]	1.25 nM	1.69 nM	2.59 nM	4.15 nM	–	–	–	–	–	–	–	–
CC(Nc1nc(C(F)F)cc2cnc(NC3CCN(S(C)(=O)=O)CC3)nc12)C(F)(F)F (stereo not shown) [Compound 18]	–	1.32 nM	1.56 nM	4.72 nM	–	17 nM	–	151 mm^3	233 mm^3	393 mm^3	529 mm^3	2.365 µM·h
C[C@@H]1CCCN1c1nc(C(F)F)cc2cnc(NC3CCN(S(C)(=O)=O)CC3)nc12 [Compound 25]	–	0.46 nM	–	4.02 nM	–	< 1 nM	–	151 mm^3	226 mm^3	371 mm^3	611 mm^3	–
